Experimental data taken from patent publication US7741346B2, “Angiogenesis inhibitor” (Santen Pharmaceutical Co., Ltd., priority 2001, dated 2010).

What was measured:
[1] = test system: normal human umbilical vein endotherial cells (HUVEC); assay: VEGF-induced HUVEC proliferation (in vitro angiogenesis inhibition test); type: cell-based; conditions: Homo sapiens, HUVEC, 72 h, 10 μM test compound, 10 ng/ml VEGF, three days after adding VEGF, WST-8 absorbance at 450 nm; read-out: Inhibitory rate (%) (cell growth inhibitory rate to the control)
Experimental: (1) Angiogenesis Inhibition Tests Using Human Endothelial Cells
The effects of the present compounds on the in vitro angiogenesis were evaluated by using vascular endothelial growth factor (VEGF)-induced normal human umbilical vein endotherial cells (HUVEC) proliferation system (Cancer Res., 59, 99-106 (1999)), wherein inhibitory effects of drugs on cell growth reactions induced by treating HUVEC with VEGF as an in vitro angiogenesis evaluation model.
The present compound was dissolved in DMSO and then diluted with a medium to prepare 40 μM test compound solution.
2×10^3 cells/well of HUVEC was seeded onto a type I collagen coated 96-well plate. After one day, 25 μl of the 40 μM test compound solution and a 0.8% DMSO solution as a control were added to each well (final concentration; 10 μM of the test compound and 0.2% of DMSO). One hour after adding the test compound, 25 μl of 40 ng/ml VEGF solution was added to each well(final concentration; 10 ng/ml of VEGF). Three days after adding VEGF, a WST-8 assay reagent (manufactured by Dojin Chemical Co., Ltd.) was added to each well in an amount of 10 μl, and absorbance at 450 nm was measured.
Calculating cell growth inhibitory rates (%) to the control, angiogenesis inhibitory rates of almost all of the test compounds were 80% or higher.

| SMILES | inhibition at 10 µM [1] [%] | melting point [°C] |
| --- | --- | --- |
| CCCCCN(CCC12CC3CC(CC(C3)C1)C2)C(=O)NCC(C)Cc1ccncc1 (single isomer, unassigned; (-)) [Compound No. 1-120, (−)-1-[2-(1-Adamantyl)ethyl]-3-[2-methyl-3-(4-pyridyl)propyl]-1-pentylurea] | 83.1 |  |
| CCCCCN(CCC12CC3CC(CC(C3)C1)C2)C(=O)NCCCc1ccncc1 [Compound No. 1-1, 1-[2-(1-Adamantyl)ethyl]-1-pentyl-3-[3-(4-pyridyl)propyl]urea] | 83.4 |  |
| CN(CCN(CCC12CC3CC(CC(C3)C1)C2)C(=O)NCCCc1ccncc1)C(=O)OC(C)(C)C [Compound No. 1-26, 1-[2-(1-Adamantyl)ethyl]-[2-[N-(t-butoxycarbonyl)-N-methylamino]ethyl]-3-[3-(4-pyridyl)propyl]urea] | 79.2 |  |
| CCCCCN(CCC12CC3CC(CC(C3)C1)C2)C(=O)NCCCc1ccnc2ccccc12 [Compound No. 1-91, 1-[2-(1-Adamantyl)ethyl]-1-pentyl-3-[3-(4-quinolyl)propyl]urea] |  | 80.2 to 102 |
| O=C(NCCCc1ccncc1)N(CCCc1ccccc1)C(c1ccccc1)c1ccccc1 [Compound No. 1-93, 1-Diphenylmethyl-1-(3-phenylpropyl)-3-[3-(4-pyridyl)propyl]urea] |  | 123 to 124.8 |
| CCCCCN(CCC12CC3CC(CC(C3)C1)C2)C(=O)NCCC(C)c1ccncc1 (centres unmarked) [Compound No. 1-104, 1-[2-(1-Adamantyl)ethyl]-1-pentyl-3-[3-(4-pyridyl)butyl]urea] |  | 93 to 98 |
| O=C(NCCCc1ccncc1)N(CCCC(F)(F)F)CCC12CC3CC(CC(C3)C1)C2 [Compound No. 1-105, 1-[2-(1-Adamantyl)ethyl]-3-[3-(4-pyridyl)propyl]-1-(4,4,4-trifluorobutyl)urea] |  | 142.6 to 145 |
| O=C(NCCCc1ccncc1)N(CCCCC(F)(F)F)CCC12CC3CC(CC(C3)C1)C2 [Compound No. 1-106, 1-[2-(1-Adamantyl)ethyl]-3-[3-(4-pyridyl)propyl]-1-(5,5,5-trifluoropentyl)urea] |  | 116.9 to 118.9 |
| CCCCCN(CCC12CC3CC(CC(C3)C1)C2)C(=O)NCC(CC)Cc1ccncc1 (centres unmarked) [Compound No. 1-108, 1-[2-(1-Adamantyl)ethyl]-1-pentyl-3-[2-(4-pyridylmethyl)butyl]urea] |  | 72 to 77 |
| CCCCCN(CCC12CC3CC(CC(C3)C1)C2)C(=O)NCC(Cc1ccccc1)Cc1ccncc1 (centres unmarked) [Compound No. 1-109, 1-[2-(1-Adamantyl)ethyl]-3-[2-benzyl-3-(4-pyridyl)propyl]-1-pentylurea] |  | 111 to 116 |
| CCCCCN(CCC12CC3CC(CC(C3)C1)C2)C(=O)NCC(Cc1ccncc1)Cc1ccncc1 [Compound No. 1-110, 1-[2-(1-Adamantyl)ethyl]-3-[2,2-bis(4-pyridylmethyl)ethyl]-1-pentylurea] |  | 124 to 136 |
| O=C(NCCCc1ccncc1)N(CCC12CC3CC(CC(C3)C1)C2)CC(F)(F)F [Compound No. 1-114, 1-[2-(1-Adamantyl)ethyl]-3-[3-(4-pyridyl)propyl]-1-(2,2,2-trifluoroethyl)urea] |  | 106.2 to 107.3 |
| CCCCCN(CCc1ccccc1)C(=O)NCC(C)Cc1ccncc1 (centres unmarked) [Compound No. 1-115, 3-[2-Methyl-3-(4-pyridyl)propyl]-1-pentyl-1-phenethylurea] |  | 49 to 50 |
| CC(CNC(=O)N(CCC(F)(F)F)CCC12CC3CC(CC(C3)C1)C2)Cc1ccncc1 (centres unmarked) [Compound No. 1-117, 1-[2-(1-Adamantyl)ethyl]-3-[2-methyl-3-(4-pyridyl)propyl]-1-(3,3,3-trifluoropropyl)urea] |  | 81.1 to 84.1 |
| CCCCN(CCCC12CC3CC(CC(C3)C1)C2)C(=O)NCCCc1ccncc1 [Compound No. 1-122, 1-[3-(1-Adamantyl)propyl]-1-butyl-3-[3-(4-pyridyl)propyl]urea] |  | 79.8 to 80.4 |
| O=C(NCCCc1ccncc1)N(CCCC12CC3CC(CC(C3)C1)C2)CC(F)(F)F [Compound No. 1-123, 1-[3-(1-Adamantyl)propyl]-3-[3-(4-pyridyl)propyl]-1-(2,2,2-trifluoroethyl)urea] |  | 88.9 to 90 |
| CCN(CCCCC12CC3CC(CC(C3)C1)C2)C(=O)NCCCc1ccncc1 [Compound No. 1-124, 1-[4-(1-Adamantyl)butyl]-1-ethyl-3-[3-(4-pyridyl)propyl]urea] |  | 92.7 to 93.7 |
| CCCN(CCCCC12CC3CC(CC(C3)C1)C2)C(=O)NCCCc1ccncc1 [Compound No. 1-125, 1-[4-(1-Adamantyl)butyl]-1-propyl-3-[3-(4-pyridyl)propyl]urea] |  | 110 to 110.5 |

| SMILES | inhibition at 10 µM [1] [%] | melting point [°C] |
| --- | --- | --- |
| CCCCCN(CCC12CC3CC(CC(C3)C1)C2)C(=O)NCCNc1ccncc1 [Compound No. 1-126, 1-[2-(1-Adamantyl)ethyl]-1-pentyl-3-[2-(4-pyridylamino)ethyl]urea] |  | 133.9 to 134.5 |
| CCCN(CCCC12CC3CC(CC(C3)C1)C2)C(=O)NCc1ccncc1 [Compound No. 1-128, 1-[3-(1-Adamantyl)propyl]-1-propyl-3-(4-pyridyl)methylurea] |  | 96 to 98 |
| CCN(CCCC12CC3CC(CC(C3)C1)C2)C(=O)NCCCc1ccncc1 [Compound No. 1-130, 1-[3-(1-Adamantyl)propyl]-1-ethyl-3-[3-(4-pyridyl)propyl]urea] |  | 97.5 to 98.2 |
| CCCN(CC(=O)NC12CC3CC(CC(C3)C1)C2)C(=O)NCCCc1ccncc1 [Compound No. 1-132, 1-(1-Adamantyl)aminocarbonylmethyl-1-propyl-3-[3-(4-pyridyl)propyl]urea] |  | 132 to 132.5 |
| CCCCCN(CCC12CC3CC(CC(C3)C1)C2)C(=O)NCC(C)(C)Cc1ccncc1 [Compound No. 1-135, 1-[2-(1-Adamantyl)ethyl]-3-[2,2-dimethyl-3-(4-pyridyl)propyl]-1-pentylurea] |  | 82.5 to 84.9 |
| CCCCCN(CCC12CC3CC(CC(C3)C1)C2)C(=O)NCCCc1cc[n+](C)cc1.[I-] [Compound No. 4-1, 4-[3-[3-[2-(1-Adamantyl)ethyl]-3-pentylureido]propyl]-1-methylpyridinium iodide] |  | 168 to 171 |
| OCCN(CCc1ccccc1)C(=S)NCCCc1ccncc1 [Compound No. 7-2, 1-(2-Hydroxyethyl)-1-phenethyl-3-[3-(4-pyridyl)propyl]thiourea] |  | 105.6 to 107.1 |
| S=C1N(CCCc2ccncc2)CCN1CCc1ccccc1 [Compound No. 8-1, 1-Phenethyl-3-[3-(4-pyridyl)propyl]-2-imidazolidinethione] |  | 99.5 to 104 |
| CC(=O)NN(CCC12CC3CC(CC(C3)C1)C2)C(=O)NCCCc1ccncc1 [Compound No. 10-1, 1-Acetylamino-1-[2-(1-adamantyl)ethyl]-3-[3-(4-pyridyl)propyl]urea] |  | 140 to 146 |
| CN(CCN(CCC12CC3CC(CC(C3)C1)C2)C(=O)NCCCc1ccncc1)S(C)(=O)=O [Compound No. 10-4, 1-[2-(1-Adamantyl)ethyl]-1-[2-[N-methyl-N-(methylsulfonyl)amino]ethyl]-3-[3-(4-pyridyl)propyl]urea] |  | 164.9 to 167.2 |
| CN(CCN(CCC12CC3CC(CC(C3)C1)C2)C(=O)NCCCc1ccncc1)C(=O)CC(C)(C)C [Compound No. 10-6, 1-[2-(1-Adamantyl)ethyl]-1-[2-[N-(3,3-dimethylbutyryl)-N-methylamino]ethyl]-3-[3-(4-pyridyl)propyl]urea] |  | 101.4 to 102.4 |
| CC(C)(C)OC(=O)NCCN(CCC12CC3CC(CC(C3)C1)C2)C(=O)NCCCc1ccncc1 [Compound No. 10-8, 1-[2-(1-Adamantyl)ethyl]-1-[2-[N-(t-butoxycarbonyl)amino]ethyl]-3-[3-(4-pyridyl)propyl]urea] |  | 158 to 160.5 |
| CN(CCN(CCC12CC3CC(CC(C3)C1)C2)C(=O)NCCCc1ccncc1)C(=O)OC(C)(C)C(Cl)(Cl)Cl [Compound No. 10-10, 1-[2-(1-Adamantyl)ethyl]-1-[2-[N-(1,1-dimethyl-2,2,2-trichloroethoxycarbonyl)-N-methylamino}ethyl]-3-[3-(4-pyridyl)propyl]urea] |  | 47 to 52 |
| O=C(NCCCc1ccncc1)N(O)CCC12CC3CC(CC(C3)C1)C2 [Compound No. 12-1, 1-[2-(1-Adamantyl)ethyl]-1-hydroxy-3-[3-(4-pyridyl)propyl]urea] |  | 101 to 102.59 |
| CCCCCN(CCC12CC3CC(CC(C3)C1)C2)C(=O)NCCCc1cc[n+]([O-])cc1 [Compound No. 16-1, 4-[3-[3-[2-(1-Adamantyl)ethyl]-3-pentylureido]propyl]pyridine N-oxide] |  | 97.8 to 127 |
| CCNCCN(CCC12CC3CC(CC(C3)C1)C2)C(=O)NCCCc1ccncc1 [Compound No. 20-1, 1-[2-(1-Adamantyl)ethyl]-1-[2-(N-ethylamino)ethyl]-3-[3-(4-pyridyl)propyl]urea] |  | 96.8 to 104.9 |
| CCCCCN(CCC12CC3CC(CC(C3)C1)C2)C(=O)NCCC(=O)c1ccncc1 [Compound No. 31-1, 1-[2-(1-Adamantyl)ethyl]-3-[3-oxo-3-(4-pyridyl)propyl]-1-pentylurea] |  | 103.5 to 104 |
